From patent publication US5053431A, “Derivatives of chrysophanol as topoisomerase II inhibitors” (Sloan-Kettering Institute For Cancer Research, priority 1990, dated 1991)
Where two headings read alike, the source gives them in different places.

How the values were obtained:
[1] = system: mouse leukemia L1210 cells; assay: Inhibition of L1210 cell growth; type: cell-based
Method: Preliminary biological data for inhibiting cell growth of murine L1210 leukemic cells and human acute promyelocytic leukemia cells (HL-60) during 72 h of exposure to the compounds are given in Table IV. The potencies for inhibiting [^3 H]TdR incorporation into DNA in HL-60 cells during the initial 30-min period are also given in Table IV. It is interesting to note that 1,8-di-O-methyl derivatives are uniformly devoid of activity against L1210 leukemic cells. […] The B/A ratios allow an indirect estimation of whether or not cytotoxicities exerted by these analogues are primarily due to initial inhibition of DNA synthesis. […] Whether these analogues, like m-AMSA, ellipticine, or anthracyclines, act by inhibiting DNA topoisomerase II remains to be explored. […] Our preliminary experiments indicate that the compounds arrest cells in the S and/or G2 phases of the cell cycle (unpublished results).

[2] = system: human leukemia HL-60 cells; assay: HL-60 cell growth inhibition (72 h); type: cell-based; conditions: HL-60, 72 h, read-out: ID50, M [HL-60 cell growth (72 h)] (A)
Method: For cell growth inhibition studies, HL-60 cells […]) were grown in RPMI 1640 media at 37° C. in humidified 5% CO2 for 72 h. Viable cells were counted with the trypan blue exclusion method. The fractional inhibitions at four or five concentrations of compounds (in 0.2% DMSO) were analyzed with a median-effect plot (Chou, T.-C., et al., Adv. Enzyme Regul. 22:27 (1984)) by using a computer program. (Chou, J.; Chou, T.-C. Dose-Effect Analyses with Microcomputer. Quantitation of ID50, LD50, Synergism, Antagonism, Low-dose Risk, Receptor-Binding and Enzyme Kinetics; IBM-PC Series, Elsevier-Biosoft, Elsevier Scientific: Cambridge, U.K., (1986)). The median-effect concentration (ID50) was automatically determined for the x intercept of the median-effect plot. Cell growth in the absence of a compound and in the presence of DMSO was used as a control. DMSO (0.2%) alone inhibited cell growth 3.8±1.2% during the 72-h incubation period.

[3] = system: [^3 H]TdR incorporation into DNA in HL-60 cells; assay: Inhibition of [3H]TdR incorporation into DNA in HL-60 cells (initial 30 min); type: cell-based, human; conditions: for IC50: HL-60, initial 30 min exposure, read-out: ID50, M (HL-60 TdR into DNA (B)); for B/A: ratio of ID50 for TdR incorporation (B) to ID50 for cell growth (A), HL-60
Method: For precursor incorporation studies, each compound at four to six concentrations (0.2% DMSO) was preincubated with HL-60 cells (2.5×10^6 /Ml) for 15 min prior to the addition of [^3 H-methyl]TdR (1 μCi, 0.15 nmol/mL) and was incubated for 30 min. […] The incorporation of radioactivity in DNA in the absence of an analogue in the presence of DMSO was used as a control.

[4] = Mus musculus, Table IV, L1210, 72 h exposure, read-out: ID50, M (L1210 cell growth)
[5] = Mus musculus, L1210, Table I, read-out: ID50 (the source's name)
[6] = Mus musculus, L1210, Table I, read-out: ID50 (μg/mL)

O=C1c2cccc(O)c2C(=O)c2c(O)cc(Cn3ccnc3)cc21 [XIa-15]
IC50 [1, 4]: 7.4 µM
IC50 ([2]; Homo sapiens, 0.2% DMSO): 4.8 µM
IC50 ([3]; Homo sapiens, 0.5 h): 43 µM
B/A [3]: 9.0

CCN(CC)Cc1cc(OC)c2c(c1)C(=O)c1cccc(OC)c1C2=O [IXa-1, 3-[(Diethylamino)methyl]-1,8-dimethoxy-9,10-anthraquinone]
IC50 [1, 5]: 128 µM
IC50 [1, 6]: 52.3 µg/mL
IC50 [1, 4]: 130 µM
IC50 ([2]; Homo sapiens, 0.2% DMSO): 30 µM
IC50 ([3]; Homo sapiens, 0.5 h): 19 µM
B/A [3]: 6.3

COc1cc(OC)c2c(c1)C(=O)c1cc(CNCCO)cc(OC)c1C2=O [IXb-6, 3-[N-(2-hydroxyethyl)amino]methyl-1,6,8-trimethoxy-9,10-anthraquinone]
IC50 [1, 5]: 12.5 µM
IC50 [1, 6]: 5.1 µg/mL
IC50 [1, 4]: 17 µM
IC50 ([2]; Homo sapiens, 0.2% DMSO): 110 µM
IC50 ([3]; Homo sapiens, 0.5 h): 26 µM
B/A [3]: 0.24

COc1cc(OC)c2c(c1)C(=O)c1cc(C)cc(OC)c1C2=O [IIb, 1,3,8-Trimethoxy-6-methyl-9,10-anthraquinone]
IC50 [1, 4]: 100 µM
IC50 ([2]; Homo sapiens, 0.2% DMSO): 49 µM
IC50 ([3]; Homo sapiens, 0.5 h): 21 µM

Cc1cc(O)c2c(c1)C(=O)c1cccc(O)c1C2=O [IIa]
IC50 [1, 5]: > 390 µM
IC50 [1, 6]: > 100 µg/mL

O=C1c2cccc(O)c2C(=O)c2c(O)cc(CBr)cc21 [VIa, 3-bromomethyl-1,8-dihydroxy-9,10-anthraquinone]
IC50 [1, 4]: 8.6 µM
IC50 ([2]; Homo sapiens, 0.2% DMSO): 7.1 µM
IC50 ([3]; Homo sapiens, 0.5 h): 16 µM
B/A [3]: 2.3

6-(Dibromomethyl)-1-(and 8)-hydroxy-3,8(and) 1,3)-dimethoxy-9,10-anthraquinone [VIIb]
IC50 ([1]; Table IV, L1210, 72 h exposure, read-out: ID50, M (L1210 cell growth)): 0.001 µM
IC50 ([2]; 0.2% DMSO): 0.097 µM
IC50 [3]: 23 µM
B/A [3]: 237

Cc1cc(O)c2c(c1)C(=O)c1cc(O)cc(O)c1C2=O [IIb]
IC50 [1, 5]: > 335 µM
IC50 [1, 6]: > 100 µg/mL

COc1cc(O)c2c(c1)C(=O)c1cc(C(Br)Br)cc(O)c1C2=O [VIIIb, 6-(Dibromomethyl)-3-methoxy-1,8-dihydroxy-9,10-anthraquinone]
IC50 [1, 4]: 0.001 µM
IC50 ([2]; Homo sapiens, 0.2% DMSO): 0.19 µM
IC50 ([3]; Homo sapiens, 0.5 h): 110 µM
B/A [3]: 579

COc1cccc2c1C(=O)c1c(OC)cc(C(Br)Br)cc1C2=O [IVa, 3-Dibromomethyl-1,8-dimethoxy-9,10-anthraquinone]
IC50 [1, 4]: 0.89 µM
IC50 ([2]; Homo sapiens, 0.2% DMSO): 2.1 µM
IC50 ([3]; Homo sapiens, 0.5 h): 9 µM
B/A [3]: 4.3

CN(C)Cc1cc(O)c2c(c1)C(=O)c1cccc(O)c1C2=O [XIa-9]
IC50 [1, 4]: 2.2 µM
IC50 ([2]; Homo sapiens, 0.2% DMSO): 2.7 µM
IC50 ([3]; Homo sapiens, 0.5 h): 9.3 µM
B/A [3]: 3.3

CC(C)NC(=O)OCCN(CCOC(=O)NC(C)C)Cc1cc(O)c2c(c1)C(=O)c1cccc(O)c1C2=O [XIa-12]
IC50 [1, 4]: 27 µM
IC50 ([2]; Homo sapiens, 0.2% DMSO): 27 µM
IC50 ([3]; Homo sapiens, 0.5 h): 17 µM
B/A [3]: 0.63

O=C1c2cccc(O)c2C(=O)c2c(O)cc(CN(CCO)CCO)cc21 [XIa-2, 3-[N,N-bis(2-hydroxyethyl)amino] methyl-1,8-dihydroxy-9,10-anthraquinone]
IC50 [1, 5]: 5.9 µM
IC50 [1, 6]: 2.33 µg/mL
IC50 ([2]; Homo sapiens, 0.2% DMSO): 3.3 µM
IC50 ([3]; Homo sapiens, 0.5 h): 14 µM
B/A [3]: 4.2

COc1cc(OC)c2c(c1)C(=O)c1cc(CNCCCl)cc(OC)c1C2=O [IXb-7, 3-[N-(2-chloroethyl)amino]methyl-1,6,8-trimethoxy-9,10-anthraquinone]
IC50 ([1]; Mus musculus, L1210, 72 h, read-out: ID50, M (L1210 cell growth)): 3.2 µM
IC50 ([2]; Homo sapiens): 5.8 µM
IC50 ([3]; Homo sapiens, 0.5 h): 18 µM
B/A [3]: 3.1

CCN(CC)Cc1cc(O)c2c(c1)C(=O)c1cc(OC)cc(O)c1C2=O [XIb-1, 3-(N,N-diethylamino)methyl-1,8-dihydroxy-6-methoxy-9,10-anthraquinone]
IC50 [1, 5]: 1.16 µM
IC50 [1, 6]: 0.51 µg/mL
IC50 [1, 4]: 1.2 µM
IC50 ([2]; Homo sapiens, 0.2% DMSO): 3.4 µM
IC50 ([3]; Homo sapiens, 0.5 h): 35 µM
B/A [3]: 10.3
